The target of one assay is T1, FLT3-D835Y (Homo sapiens, UniProt P36888, D835Y).
T1 construct: purchased Invitrogen PV3967
T1 sequence (P36888 27-993 D835Y): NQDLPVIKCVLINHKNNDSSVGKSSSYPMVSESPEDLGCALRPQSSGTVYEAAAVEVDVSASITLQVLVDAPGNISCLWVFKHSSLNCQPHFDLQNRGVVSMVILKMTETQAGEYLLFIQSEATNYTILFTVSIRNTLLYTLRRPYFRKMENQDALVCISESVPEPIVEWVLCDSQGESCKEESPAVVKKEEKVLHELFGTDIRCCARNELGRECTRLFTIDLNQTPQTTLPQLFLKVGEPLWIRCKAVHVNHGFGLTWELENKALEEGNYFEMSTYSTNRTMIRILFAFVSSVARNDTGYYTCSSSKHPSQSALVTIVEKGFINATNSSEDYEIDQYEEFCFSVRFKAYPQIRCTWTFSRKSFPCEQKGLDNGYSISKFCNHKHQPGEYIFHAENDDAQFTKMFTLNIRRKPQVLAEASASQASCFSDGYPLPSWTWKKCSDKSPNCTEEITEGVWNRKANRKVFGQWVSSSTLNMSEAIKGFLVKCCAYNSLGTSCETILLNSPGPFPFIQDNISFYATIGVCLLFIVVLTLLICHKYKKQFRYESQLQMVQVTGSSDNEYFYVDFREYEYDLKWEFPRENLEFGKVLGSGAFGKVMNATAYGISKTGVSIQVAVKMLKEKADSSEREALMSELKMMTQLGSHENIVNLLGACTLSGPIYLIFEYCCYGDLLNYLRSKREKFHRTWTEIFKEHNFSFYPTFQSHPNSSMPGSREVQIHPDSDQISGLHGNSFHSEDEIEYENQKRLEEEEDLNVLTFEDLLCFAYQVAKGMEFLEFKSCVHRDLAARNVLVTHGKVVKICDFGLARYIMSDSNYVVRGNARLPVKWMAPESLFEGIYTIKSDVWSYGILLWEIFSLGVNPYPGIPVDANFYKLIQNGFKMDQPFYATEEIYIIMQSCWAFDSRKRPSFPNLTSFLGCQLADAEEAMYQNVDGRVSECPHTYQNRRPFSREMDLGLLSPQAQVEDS
In words: FLT3-D835Y biochemical kinase assay (AlphaScreen). Put shortly:
(§1)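 IC50 values reflect loss of AlphaScreen proximity signal (excitation 680 nm, emission 580 nm) from tyrosine phosphorylation of a biotinylated poly(Glu4-Tyr) substrate at 30 nM. ATP was 10 μM for the D835Y mutant and 100 μM for ITD. Detection used PY20 acceptor beads.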
(In general: In Alpha technology, singlet oxygen from a donor bead excites a nearby acceptor bead.)

For a further assay, the target named is T2, FLT3-ITD (Homo sapiens, UniProt P36888).
T2 construct: FLT3-ITD; Invitrogen #PV6190
T2 sequence (P36888 1-993): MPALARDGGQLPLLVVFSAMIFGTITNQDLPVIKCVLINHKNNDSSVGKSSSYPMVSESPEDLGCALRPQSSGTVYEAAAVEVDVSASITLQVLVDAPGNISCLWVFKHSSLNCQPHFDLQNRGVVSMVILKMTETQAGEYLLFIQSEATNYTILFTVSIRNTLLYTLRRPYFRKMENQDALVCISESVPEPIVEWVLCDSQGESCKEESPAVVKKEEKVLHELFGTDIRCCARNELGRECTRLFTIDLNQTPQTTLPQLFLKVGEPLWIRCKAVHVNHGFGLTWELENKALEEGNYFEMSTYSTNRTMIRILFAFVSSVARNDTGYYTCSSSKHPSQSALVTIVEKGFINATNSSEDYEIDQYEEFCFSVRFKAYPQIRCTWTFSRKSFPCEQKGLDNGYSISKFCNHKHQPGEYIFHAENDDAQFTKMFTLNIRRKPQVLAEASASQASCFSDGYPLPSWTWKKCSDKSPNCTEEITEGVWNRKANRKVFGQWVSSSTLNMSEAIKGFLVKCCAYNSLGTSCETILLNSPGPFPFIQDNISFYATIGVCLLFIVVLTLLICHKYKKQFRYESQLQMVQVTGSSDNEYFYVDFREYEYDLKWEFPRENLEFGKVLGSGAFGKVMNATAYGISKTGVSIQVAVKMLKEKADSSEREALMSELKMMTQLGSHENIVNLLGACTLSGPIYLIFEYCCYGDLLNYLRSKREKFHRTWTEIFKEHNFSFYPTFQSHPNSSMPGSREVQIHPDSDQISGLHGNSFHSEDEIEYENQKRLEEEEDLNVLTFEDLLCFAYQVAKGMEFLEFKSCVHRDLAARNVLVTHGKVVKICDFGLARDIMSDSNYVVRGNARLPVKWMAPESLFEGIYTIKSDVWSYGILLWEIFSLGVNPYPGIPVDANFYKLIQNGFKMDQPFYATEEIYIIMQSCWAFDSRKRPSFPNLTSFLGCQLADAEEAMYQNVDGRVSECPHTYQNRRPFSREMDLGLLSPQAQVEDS
The assay can be described thus: FLT3-ITD biochemical kinase assay (AlphaScreen). The procedure, abridged:
as §1

Usually IC50 stands for the midpoint of a concentration-inhibition curve. A higher IC50 goes with lower potency. For `COC(=O)N1CCCC(n2cnc3ccc(-c4c[nH]c5ncc(-c6ccnc(OC)c6)nc45)cc32)C1` (centres unmarked) [P-261, methyl 3-(6-(2-(2-methoxypyridin-4-yl)-5H-pyrrolo[2,3-b]pyrazin-7-yl)-1H-benzo[d]imidazol-1-yl)piperidine-1-carboxylate], the IC50 at FLT3-D835Y and against FLT3-ITD was 0.0001 to 1 µM in each case.

On to `C(#Cc1cnc2[nH]cc(-c3ccc4ncn(C5CCCNC5)c4c3)c2n1)c1ccccc1` (centres unmarked) [P-248, 2-(2-phenylethynyl)-7-[3-(3-piperidyl)benzimidazol-5-yl]-5H-pyrrolo[2,3-b]pyrazine], for which the concentration for half-maximal inhibition (IC50) against FLT3-D835Y and on FLT3-ITD was 0.0001 to 1 µM throughout.

For `FC(F)n1cc(-c2cnc3[nH]cc(-c4ccc5ncn(C6CCCNC6)c5c4)c3n2)cn1` (centres unmarked) [P-257, 2-[1-(difluoromethyl)pyrazol-4-yl]-7-[3-(3-piperidyl)benzimidazol-5-yl]-5H-pyrrolo[2,3-b]pyrazine], the concentration for half-maximal inhibition (IC50) on FLT3-D835Y and against FLT3-ITD was 0.0001 to 1 µM throughout.

In the case of `CC(C)(C)n1cnc2ccc(-c3c[nH]c4ncc(C(=O)Nc5cccc(C#N)c5)cc34)cc21` [P-218, 3-(3-tert-butylbenzimidazol-5-yl)-N-(3-cyanophenyl)-1H-pyrrolo[2,3-b]pyridine-5-carboxamide], the IC50 on FLT3-D835Y and against FLT3-ITD was 0.0001 to 1 µM throughout.

For the compound `CC(C)(C)n1cnc2ccc(-c3c[nH]c4ncc(-c5cnn(C(F)F)c5)nc34)cc21` [P-255, 7-(3-tert-butylbenzimidazol-5-yl)-2-[1-(difluoromethyl)pyrazol-4-yl]-5H-pyrrolo[2,3-b]pyrazine], the IC50 at FLT3-D835Y and against FLT3-ITD was 0.0001 to 1 µM throughout.

Turning to `CC(C)(C)n1cnc2ccc(-c3c[nH]c4ncc(NC(=O)c5cccc(C#N)c5)cc34)cc21` [P-235, N-[3-(3-tert-butylbenzimidazol-5-yl)-1H-pyrrolo[2,3-b]pyridin-5-yl]-3-cyano-benzamide], the 50% inhibitory concentration (IC50) against FLT3-D835Y and on FLT3-ITD was 0.0001 to 1 µM in each case.

On to `CC(C)(C)n1cnc2ccc(-c3c[nH]c4ncc(-c5ccnc(N6CCOCC6)c5)nc34)cc21` [P-228, 4-[4-[7-(3-tert-butylbenzimidazol-5-yl)-5H-pyrrolo[2,3-b]pyrazin-2-yl]-2-pyridyl]morpholine], for which the IC50 on FLT3-D835Y and at FLT3-ITD was 0.0001 to 1 µM throughout.

Take `COc1cnc2[nH]cc(-c3cnc4ncn(Cc5cc(C)on5)c4c3)c2c1` [P-144, 3-[[6-(5-methoxy-1H-pyrrolo[2,3-b]pyridin-3-yl)imidazo[4,5-b]pyridin-1-yl]methyl]-5-methyl-isoxazole]: the IC50 against FLT3-D835Y and against FLT3-ITD was 0.0001 to 1 µM in each case.

Regarding `COc1cnc2[nH]cc(-c3ccc4ncn(-c5cccc(F)c5)c4c3)c2c1` [P-128, 1-(3-fluorophenyl)-6-(5-methoxy-1H-pyrrolo[2,3-b]pyridin-3-yl)benzimidazole], the IC50 on FLT3-D835Y and against FLT3-ITD was 0.0001 to 1 µM in each case.

On to `COc1cc(C(=O)Nc2cnc3[nH]cc(-c4ccc5ncn(C(C)(C)C)c5c4)c3c2)ccn1` [P-245, N-[3-(3-tert-butylbenzimidazol-5-yl)-1H-pyrrolo[2,3-b]pyridin-5-yl]-2-methoxy-pyridine-4-carboxamide], for which the IC50 at FLT3-D835Y and against FLT3-ITD was 0.0001 to 1 µM each time.

In the case of `COc1cnc2[nH]cc(-c3ccc4ncn(Cc5ccc(F)cc5)c4c3)c2c1` [P-110, 1-[(4-fluorophenyl)methyl]-6-(5-methoxy-1H-pyrrolo[2,3-b]pyridin-3-yl)benzimidazole], the IC50 on FLT3-D835Y and on FLT3-ITD was 0.0001 to 1 µM in each case.

Consider `N#Cc1cccc(C(=O)Nc2cnc3[nH]cc(-c4ccc5ncn(C6CCCNC6)c5c4)c3c2)c1` (centres unmarked) [P-236, 3-cyano-N-[3-[3-(3-piperidyl)benzimidazol-5-yl]-1H-pyrrolo[2,3-b]pyridin-5-yl]benzamide], for which the half-maximal inhibitory concentration (IC50) at FLT3-D835Y and on FLT3-ITD was 0.0001 to 1 µM in each case.

For the compound `c1cc(N2CCOCC2)ccc1-c1cnc2[nH]cc(-c3ccc4ncn(C5CCCNC5)c4c3)c2n1` (centres unmarked) [P-101, 4-[4-[7-[3-(3-piperidyl)benzimidazol-5-yl]-5H-pyrrolo[2,3-b]pyrazin-2-yl]phenyl]morpholine], the IC50 at FLT3-D835Y and against FLT3-ITD was 0.0001 to 1 µM throughout.

These data come from patent publication US10160755B2 (Plexxikon Inc., priority 2015, dated 2018).
